Reference: patent publication US5516790A, “Synthesis and application of alkyl-substituted dibenzofurans as antitumorigenic agents” (Texas A&M University System Technology Licensing Office, priority 1994, dated 1996)

How the values were obtained:
AHH and EROD induction = experiment: TCDD antagonism / Ah receptor agonist activity (AHH and EROD induction)
160-kDa protein = conditions: Biegel and Safe, 1990; cited from earlier work
[1] = tested on: progesterone receptor (PR); experiment: Uterine progesterone receptor levels, hydroxyapatite assay (Example 8); format: in vivo, female Sprague-Dawley rats; conditions: run A
uterus = conditions: cited from earlier work
[2] = tested on: tissue plasminogen activator; conditions: MCF-7 human breast cancer cells; cited from earlier work
[3] = 150 μmol/kg + E-2 (2 × 10 μg/rat)
[4] = compound alone, 150 μmol/kg (17β-estradiol: 2 × 10 μg/rat)

Row | SMILES | agonist for Ah receptor mediated response (AHH and EROD induction) | 17β-estradiol-induced secretion of the 160-kDa protein (160-kDa protein) | Progesterone Receptor Levels, Cytosolic [1, 3] | Progesterone Receptor Levels, Nuclear [1, 3] | Progesterone Receptor Levels, Cytosolic [1, 4] | Progesterone Receptor Levels, Nuclear [1, 4] | estrogenic effects of 17β-estradiol on uterine weights (uterus; TCDD with 17β-estradiol) | uterine weights (uterus; female Long Evans rats) | estrogen mediated excretion of tissue plasminogen activator activity [2]
1 | Cc1cc(Cl)cc2c1oc1cc(Cl)cc(Cl)c12 [MCDF, 6-methyl 1,3,8-trichlorodibenzofuran] | poor agonist | inhibits | 1203 ± 110 fmol/mg protein | 435 ± 91 fmol/mg protein | 915 ± 63 fmol/mg protein | 312 ± 50 fmol/mg protein | – | – | –
2 | Clc1cc2c(cc1Cl)Oc1cc(Cl)c(Cl)cc1O2 [TCDD, 2,3,7,8-tetrachloridibenzo-p-dioxin] | – | – | – | – | – | – | partially blocked | decreased | suppressed
